Like-named read-outs stand apart in the source and are kept apart here. Numbered stars: 1 amine (or outer) side, 2 acyl side, 3 side chain; on linkers, the order of the positions; unused ones are H or OH. Bridge positions count the residues as written; N and C are the ends. Square brackets hold non-standard residues; d marks the D form. Side chains are listed from the residue outwards. Peptide text beside a SMILES is read from it. * marks the point of attachment. CH2CO(D-glucamine) = O=C(C*)NC[C@H](O)[C@@H](O)[C@H](O)[C@H](O)CO; NH(1-deoxy-D-glucityl) = OC[C@@H](O)[C@@H](O)[C@H](O)[C@@H](O)CN*; Trp(1-CH2COOH) = N[C@@H](Cc1cn(CC(=O)O)c2ccccc12)C(=O)O; CH2CON(CH2CH2)2NCH2COOH = O=C(O)CN1CCN(C(=O)C*)CC1; NMePhe(4-COOH) = CN[C@@H](Cc1ccc(C(=O)O)cc1)C(=O)O; X1 = O=C([C@H](Cc1cccc(C(=O)[*:3])c1)N[*:1])[*:2]; Nle(6-morpholino) = N[C@@H](CCCCN1CCOCC1)C(=O)O; Phe(3-COOH) = N[C@@H](Cc1cccc(C(=O)O)c1)C(=O)O; Trp(7-aza) = N[C@@H](Cc1c[nH]c2ncccc12)C(=O)O; NH(CH2CH2O)8Me = COCCOCCOCCOCCOCCOCCOCCOCCN*; NMePhe(3-Cl) = CN[C@@H](Cc1cccc(Cl)c1)C(=O)O; Piperazinyl(4-CH2COOH) = O=C(O)CN1CCN(*)CC1; 3Pal(6-NH2) = Nc1ccc(C[C@H](N)C(=O)O)cn1; NMeW = CN[C@@H](Cc1c[nH]c2ccccc12)C(=O)O; NMe3Pal = CN[C@@H](Cc1cccnc1)C(=O)O; NMeY = CN[C@@H](Cc1ccc(O)cc1)C(=O)O; Nva(3-Et) = CCC(CC)[C@H](N)C(=O)O; NMeF = CN[C@@H](Cc1ccccc1)C(=O)O; 4Pal = N[C@@H](Cc1ccncc1)C(=O)O; PEG4 = NCCOCCOCCOCCOCCC(=O)O; Carboxymethyl = O=C(O)C*; CO = O=C([*:1])[*:2]
Molecular target: human transferrin receptor (hTfR) (Homo sapiens, UniProt P02786)
Sequence (P02786 whole entry): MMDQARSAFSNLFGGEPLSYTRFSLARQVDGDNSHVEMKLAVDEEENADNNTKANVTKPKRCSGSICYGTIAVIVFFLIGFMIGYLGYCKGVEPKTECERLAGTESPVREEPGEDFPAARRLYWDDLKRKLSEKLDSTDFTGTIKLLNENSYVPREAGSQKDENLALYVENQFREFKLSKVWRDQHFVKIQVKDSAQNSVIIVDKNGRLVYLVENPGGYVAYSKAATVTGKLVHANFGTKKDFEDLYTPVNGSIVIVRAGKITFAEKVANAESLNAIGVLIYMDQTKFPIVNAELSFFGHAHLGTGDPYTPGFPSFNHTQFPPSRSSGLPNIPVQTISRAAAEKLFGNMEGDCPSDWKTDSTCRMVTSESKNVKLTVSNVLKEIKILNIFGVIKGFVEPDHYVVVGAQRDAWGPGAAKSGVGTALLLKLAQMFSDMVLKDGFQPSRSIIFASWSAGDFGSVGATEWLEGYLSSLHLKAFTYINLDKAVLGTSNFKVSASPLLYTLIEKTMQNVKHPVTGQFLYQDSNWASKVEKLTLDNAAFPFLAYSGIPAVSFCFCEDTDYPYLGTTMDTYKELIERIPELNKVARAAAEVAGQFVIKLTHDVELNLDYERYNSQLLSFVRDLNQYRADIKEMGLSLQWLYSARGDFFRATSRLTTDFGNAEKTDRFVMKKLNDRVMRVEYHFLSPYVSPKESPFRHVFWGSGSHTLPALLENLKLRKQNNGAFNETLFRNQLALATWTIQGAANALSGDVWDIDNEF
Assay: SPR measurement under pH 7.4 conditions (Biacore T200, CM3 chip, hTfR captured by His Tag antibody)
Assay type: binding
Method: Molecular interactions between the synthesized peptides and the transferrin receptor (hTfR) were evaluated by surface plasmon resonance (SPR) using the following method. The specific assay procedure is described below.
An CM3 sensor chip (Cytiva) was inserted into BiacoreT200 (Cytiva), then a priming operation was performed three times by using a running buffer: HBS-P+, pH7.4 (Cytiva), and an equilibrium state was created at a flow rate of […]. Ligand immobilization was performed at a flow rate of 10 µL/min. After mixing 50 µL each of 60 mM EDC solution (Cytiva) and 650 mM NHS solution (Cytiva), the mixture was reacted at a flow rate of 10 µL/min for 420 seconds. 150 µL of […] THE His Tag Antibody, mAb, Mouse (GenScript) was prepared by diluting with 10 mM acetic acid solution (pH 5.0), and reacted at a flow rate of 10 µL/ min for 420 seconds. Then, THE His Tag Antibody, mAb, Mouse (GenScript) was immobilized as a capture molecule on the CM3 sensor chip. After immobilization, capping was performed by reacting with 1.0 M ethanolamine solution (Cytiva) at a flow rate of 10 µL/min for 420 seconds. 300 nM hTfR was captured at a flow rate of 10 µL/min, a peptide solution prepared at 10 mM in DMSO was diluted with running buffer to achieve a final concentration of 10 µM, and peptide solutions at 250 nM, 125 nM, 62.5 nM, 25 nM, and 12.5 nM were prepared. . The peptide samples were reacted at a flow late of 30 µL/min for 120 seconds, followed by dissociation for 600 seconds. The kinetics of the peptide against hTfR was obtained by SPR measurement for the above samples.
The kinetic evaluation model was single-cycle kinetics, and curve fitting was performed using Biacore T200 Evaluation Software Version 3.0 (Cytiva). The binding of the peptide to hTfR was evaluated by performing curve fitting on the obtained sensorgram by the least squares method and obtaining the kon value, the koff value, and the KD value.

[1] = SPR, pH 7.4, peptide with the linker named in the table, read-out: hTfR SPR pH7.4 KD
[2] = SPR, pH 7.4, Table 2-1-2, read-out: hTfR SPR pH7.4 KD(n M)

Kd [2]	Compound	other results
16 nM	CC[C@H](C)[C@@H]1NC(=O)[C@H](Cc2ccc(OCC(=O)N3CCN(CC(=O)O)CC3)cc2)NC(=O)[C@H](Cc2ccc(N)nc2)NC(=O)[C@H](CC(N)=O)NC(=O)[C@H](Cc2c[nH]c3ncccc23)NC(=O)[C@H](C(C)C)NC(=O)[C@H](Cc2cccc(Cl)c2)N(C)C(=O)[C@H](C(C)C)NC(=O)[C@H](C)NC(=O)CSC[C@@H](C(=O)NCCOCCOCCOCCOCCC(N)=O)NC(=O)[C@H](Cc2ccc(O)cc2)N(C)C(=O)[C@H](Cc2ccncc2)NC(=O)[C@H](CCCNC(=N)N)NC(=O)[C@H](CCCCNC(=O)N2CCN(CC(=O)O)CC2)NC(=O)[C@H]([C@@H](C)CC)NC1=O [compound 156] ({CH2CO}-AV[NMePhe(3-Cl)]V[Trp(7-aza)]N[3Pal(6-NH2)]Y(CH2CON(CH2CH2)2NCH2COOH)IIK([CO-Piperazinyl(4-CH2COOH)])R[4Pal][NMeY]C[PEG4]-NH2; thioether N-15)	
20.2 nM	CC[C@H](C)[C@@H]1NC(=O)[C@H](Cc2ccc(OCC(=O)N3CCN(CC(=O)O)CC3)cc2)NC(=O)[C@H](Cc2ccc(N)nc2)NC(=O)[C@H](CC(N)=O)NC(=O)[C@H](Cc2cn(CC(=O)O)c3ccccc23)NC(=O)[C@H](C(C)C)NC(=O)[C@H](Cc2cccc(Cl)c2)N(C)C(=O)[C@H](C(C)C)NC(=O)[C@H](C)NC(=O)CSC[C@@H](C(=O)NCCOCCOCCOCCOCCC(N)=O)NC(=O)[C@H](Cc2ccc(O)cc2)N(C)C(=O)[C@H](Cc2ccncc2)NC(=O)[C@H](CCCNC(=N)N)NC(=O)[C@H](CCCCNC(=O)N2CCN(CC(=O)O)CC2)NC(=O)[C@H]([C@@H](C)CC)NC1=O [compound 158] ({CH2CO}-AV[NMePhe(3-Cl)]V[Trp(1-CH2COOH)]N[3Pal(6-NH2)]Y(CH2CON(CH2CH2)2NCH2COOH)IIK([CO-Piperazinyl(4-CH2COOH)])R[4Pal][NMeY]C[PEG4]-NH2; thioether N-15)	

Continued, molecule first:

Compound	Kd [2]	other results
CC[C@H](C)[C@@H]1NC(=O)[C@H](Cc2ccc(OCC(=O)NC[C@H](O)[C@@H](O)[C@H](O)[C@H](O)CO)cc2)NC(=O)[C@H](Cc2ccc(N)nc2)NC(=O)[C@H](CC(N)=O)NC(=O)[C@H](Cc2c[nH]c3ncccc23)NC(=O)[C@H](C(C)C)NC(=O)[C@H](Cc2cccc(Cl)c2)N(C)C(=O)[C@H](C(C)C)NC(=O)[C@H](C)NC(=O)CSC[C@@H](C(=O)NCCOCCOCCOCCOCCC(N)=O)NC(=O)[C@H](Cc2ccc(O)cc2)N(C)C(=O)[C@H](Cc2ccncc2)NC(=O)[C@H](CCCCN2CCOCC2)NC(=O)[C@H](CCC(=O)NC[C@H](O)[C@@H](O)[C@H](O)[C@H](O)CO)NC(=O)[C@H]([C@@H](C)CC)NC1=O [compound 13] ({CH2CO}-AV[NMePhe(3-Cl)]V[Trp(7-aza)]N[3Pal(6-NH2)]Y(CH2CO(D-glucamine))IIE(NH(1-deoxy-D-glucityl))[Nle(6-morpholino)][4Pal][NMeY]C[PEG4]-NH2; thioether N-15)		Kd (pH 7.4, single-cycle kinetics, read-out: hTfR SPR pH7.4 KD): 11.4 nM
CCC(CC)[C@@H]1NC(=O)[C@H](Cc2ccc(OCC(=O)O)cc2)NC(=O)[C@H](Cc2ccc(N)nc2)NC(=O)[C@H](CC(N)=O)NC(=O)[C@H](Cc2c[nH]c3ccccc23)NC(=O)[C@H](C(C)C)NC(=O)[C@H](Cc2cccc(Cl)c2)N(C)C(=O)[C@H](C(C)C)NC(=O)[C@H](C)NC(=O)CSC[C@@H](C(=O)NCCOCCOCCOCCOCCC(N)=O)NC(=O)[C@H](Cc2ccc(C(=O)O)cc2)N(C)C(=O)[C@H](Cc2cccc(C(=O)O)c2)NC(=O)[C@H](CCCNC(=N)N)NC(=O)[C@H](CCC(=O)NCCOCCOCCOCCOCCOCCOCCOCCOC)NC(=O)[C@H]([C@@H](C)CC)NC1=O [compound 85] ({CH2CO}-AV[NMePhe(3-Cl)]VWN[3Pal(6-NH2)]Y(Carboxymethyl)[Nva(3-Et)]IE(NH(CH2CH2O)8Me)R[Phe(3-COOH)][NMePhe(4-COOH)]C[PEG4]-NH2; thioether N-15)		Kd (SPR, pH 7.4, read-out: hTfR SPR pH7.4 KD): 234 nM
CCC(CC)[C@@H]1NC(=O)[C@H](Cc2ccc(OCC(=O)O)cc2)NC(=O)[C@H](Cc2ccc(O)cc2)NC(=O)[C@H](CC(N)=O)NC(=O)[C@H](Cc2cn(CC(=O)O)c3ccccc23)NC(=O)[C@H](C(C)C)NC(=O)[C@H](Cc2cccc(Cl)c2)N(C)C(=O)[C@H](C(C)C)NC(=O)[C@H](C)NC(=O)CSC[C@@H](C(=O)NCCOCCOCCOCCOCCC(N)=O)NC(=O)[C@H](Cc2cccnc2)N(C)C(=O)[C@H](Cc2cccc(C(=O)O)c2)NC(=O)[C@H](CCCNC(=N)N)NC(=O)[C@H](CCC(N)=O)NC(=O)[C@H]([C@@H](C)CC)NC1=O [compound 97] ({CH2CO}-AV[NMePhe(3-Cl)]V[Trp(1-CH2COOH)]NYY(Carboxymethyl)[Nva(3-Et)]IQR[Phe(3-COOH)][NMe3Pal]C[PEG4]-NH2; thioether N-15)		Kd [1]: 22.6 nM
CC[C@H](C)[C@@H]1NC(=O)[C@H](Cc2ccc(O)cc2)NC(=O)[C@H](Cc2ccc(O)cc2)NC(=O)[C@H](CC(N)=O)NC(=O)[C@H](Cc2c[nH]c3ccccc23)N(C)C(=O)[C@H](C(C)C)NC(=O)[C@H](Cc2ccccc2)N(C)C(=O)[C@H](C(C)C)NC(=O)[C@H](C)NC(=O)CSC[C@@H](C(=O)NCCOCCOCCOCCOCCC(N)=O)NC(=O)[C@H](Cc2ccc(C(=O)O)cc2)N(C)C(=O)[C@H](Cc2cccc(C(=O)NCCOCCOCCOCCOCCC(=O)O)c2)NC(=O)[C@H](CCCNC(=N)N)NC(=O)[C@H](CCCCN)NC(=O)[C@H]([C@@H](C)CC)NC1=O [compound 121] ({CH2CO}-AV[NMeF]V[NMeW]NYYIIKR[X1](PEG4)[NMePhe(4-COOH)]C[PEG4]-NH2; thioether N-15)		Kd [1]: 1.84 nM
CC[C@H](C)[C@@H]1NC(=O)[C@H](Cc2ccc(OCC(=O)N3CCN(CC(=O)O)CC3)cc2)NC(=O)[C@H](Cc2ccc(N)nc2)NC(=O)[C@H](CC(N)=O)NC(=O)[C@H](Cc2c[nH]c3ncccc23)NC(=O)[C@H](C(C)C)NC(=O)[C@H](Cc2cccc(Cl)c2)N(C)C(=O)[C@H](C(C)C)NC(=O)[C@H](C)NC(=O)CSC[C@@H](C(=O)NCCOCCOCCOCCOCCC(N)=O)NC(=O)[C@H](Cc2ccc(O)cc2)N(C)C(=O)[C@H](Cc2ccncc2)NC(=O)[C@H](CCCNC(=N)N)NC(=O)[C@H](CCC(=O)NCCOCCOCCOCCOCCOCCOCCOCCOC)NC(=O)[C@H]([C@@H](C)CC)NC1=O [compound 153]	44.3 nM	
CC[C@H](C)[C@@H]1NC(=O)[C@H](Cc2ccc(OCC(=O)N3CCN(CC(=O)O)CC3)cc2)NC(=O)[C@H](Cc2ccc(N)nc2)NC(=O)[C@H](CC(N)=O)NC(=O)[C@H](Cc2c[nH]c3ncccc23)NC(=O)[C@H](C(C)C)NC(=O)[C@H](Cc2cccc(Cl)c2)N(C)C(=O)[C@H](C(C)C)NC(=O)[C@H](C)NC(=O)CSC[C@@H](C(=O)NCCOCCOCCOCCOCCC(N)=O)NC(=O)[C@H](Cc2ccc(O)cc2)N(C)C(=O)[C@H](Cc2ccncc2)NC(=O)[C@H](CCCCN2CCOCC2)NC(=O)[C@H](CCC(=O)NCCOCCOCCOCCOCCOCCOCCOCCOC)NC(=O)[C@H]([C@@H](C)CC)NC1=O [compound 154] ({CH2CO}-AV[NMePhe(3-Cl)]V[Trp(7-aza)]N[3Pal(6-NH2)]Y(CH2CON(CH2CH2)2NCH2COOH)IIE(NH(CH2CH2O)8Me)[Nle(6-morpholino)][4Pal][NMeY]C[PEG4]-NH2; thioether N-15)	32.6 nM	
CC[C@H](C)[C@@H]1NC(=O)[C@H](Cc2ccc(OCC(=O)N3CCN(CC(=O)O)CC3)cc2)NC(=O)[C@H](Cc2ccc(N)nc2)NC(=O)[C@H](CC(N)=O)NC(=O)[C@H](Cc2cn(CC(=O)O)c3ccccc23)NC(=O)[C@H](C(C)C)NC(=O)[C@H](Cc2cccc(Cl)c2)N(C)C(=O)[C@H](C(C)C)NC(=O)[C@H](C)NC(=O)CSC[C@@H](C(=O)NCCOCCOCCOCCOCCC(N)=O)NC(=O)[C@H](Cc2ccc(O)cc2)N(C)C(=O)[C@H](Cc2ccncc2)NC(=O)[C@H](CCCCN2CCOCC2)NC(=O)[C@H](CCC(=O)NCCOCCOCCOCCOCCOCCOCCOCCOC)NC(=O)[C@H]([C@@H](C)CC)NC1=O [compound 155] ({CH2CO}-AV[NMePhe(3-Cl)]V[Trp(1-CH2COOH)]N[3Pal(6-NH2)]Y(CH2CON(CH2CH2)2NCH2COOH)IIE(NH(CH2CH2O)8Me)[Nle(6-morpholino)][4Pal][NMeY]C[PEG4]-NH2; thioether N-15)	28.4 nM	
CC[C@H](C)[C@@H]1NC(=O)[C@H](Cc2ccc(OCC(=O)N3CCN(CC(=O)O)CC3)cc2)NC(=O)[C@H](Cc2ccc(N)nc2)NC(=O)[C@H](CC(N)=O)NC(=O)[C@H](Cc2c[nH]c3ncccc23)NC(=O)[C@H](C(C)C)NC(=O)[C@H](Cc2cccc(Cl)c2)N(C)C(=O)[C@H](C(C)C)NC(=O)[C@H](C)NC(=O)CSC[C@@H](C(=O)NCCOCCOCCOCCOCCC(N)=O)NC(=O)[C@H](Cc2ccc(O)cc2)N(C)C(=O)[C@H](Cc2ccncc2)NC(=O)[C@H](CCCCN2CCOCC2)NC(=O)[C@H](CCCCNC(=O)N2CCN(CC(=O)O)CC2)NC(=O)[C@H]([C@@H](C)CC)NC1=O [compound 157] ({CH2CO}-AV[NMePhe(3-Cl)]V[Trp(7-aza)]N[3Pal(6-NH2)]Y(CH2CON(CH2CH2)2NCH2COOH)IIK([CO-Piperazinyl(4-CH2COOH)])[Nle(6-morpholino)][4Pal][NMeY]C[PEG4]-NH2; thioether N-15)	15 nM	
